In patent publication EP4623912A1, “A METHOD FOR DEFATTENING A STEATOTIC LIVER EX VIVO” (ETH Zurich, priority 2024, dated 2025):

Tested on: human liver graft
Experimental: A human liver graft was perfused for 8 days, after being discarded from all Swiss transplant centers. Use of discarded grafts was approved by local authorities (Kantonale Ethik Kommission Zürich KEK Nr. 2017-000412). […] The liver was procured with a total ischemia time of 40 min after circulatory death of the donor. It was flushed with IGL-1 solution and perfused for 2 h with Belzer MPS at 8°C. The infrahepatic vena cava was closed with a suture and the hepatic artery, portal vein, suprahepatic vena cava and common bile duct were cannulated with steel cannulas. The graft was subsequently perfused with whole blood and a custom built normothermic perfusion machine (Eshmuminov,D. et al, Nat Biotechnol 38, (2020)). Hepatic arterial pressure was controlled to be 80/50 mmHg, allowing for an average flow of 0.25 L/min. A vasodilator, epoprostenol, was automatically infused to keep arterial flow stable. Oxygenation was automatically controlled with a setpoint partial pressure of oxygen equal to 12 kPa. Portal venous flow was controlled to be at 1 L/min, resulting in a pressure of 2 mmHg on average. Further, oxygenation of portal blood was automatically regulated to achieve 65% saturation in the vena cava. Use of an electric pinch valve further allowed for pressure regulation in the vena cava, keeping a constant pressure of 0 mmHg. Glucose levels were automatically controlled by using a real-time glucose sensor (CCIT) and automated insulin infusions, keeping glucose levels at 7 mmol/L from the second day of perfusion onwards. A dialysis bypass was used to clear waste metabolites and control haematocrit levels by using a fixed dialysate influx rate of 200 mL/h and an automatically controlled outflux. […] After 8 days of perfusion, the liver weight decreased to 1507g (without gallbladder) and was sent for pathological examination.
Perfusate was mixed with 6 units of red blood cell concentrate (A+), 5 units of fresh frozen […], one unit of thrombocytes and 200 mL of 20% human albumin (CSL Behring). An initial bolus of 2.25 g Tazobactam and 500 mg Methylprednisolone was administered after priming. During the perfusion, 1000 U of heparin were infused per hour. Further, 2.25 g of Tazobactam, 3.36 g of ursodesoxycholic acid and 500 mg of methylprednisolone were continuously infused per day. UCB9608 was administered as a daily bolus by adding 300 µL of 50 mM solution directly to the blood reservoir, targeting a final concentration in the perfusate of 10 µM. On the first day, a larger bolus of 600 µL was given.
Adipose depots, liver pieces, differentiated iBAs, HepG2, HEK293T and HEK293-AAV cell types were homogenized in RIPA buffer (50 mM Tris-HCl pH 7.4, 150 mM NaCl, 2 mM EDTA, 1.0% Triton X100, 0.5% sodium deoxycholate) with protease inhibitors (Complete, Roche) and phosphatase inhibitors (Halt phosphatase inhibitor cocktail, ThermoFisher). The homogenates were centrifuged at 12,000×g for 10 min at 4°C to remove debris and collect whole cell extract (WCE). The concentration of WCE was determined by DC Protein Assay (Bio-Rad). After boiling the sample with Lämmeli buffer at 95°C for 5 min, equal amount of proteins was loaded and separated on 12% SDS-PAGE. […]

[1] = biopsies from both lobes, unchanged in the two control grafts

COc1ccc(NC(=O)N2CCN(c3nc(N)nc4c3cnn4C)[C@@H](C)C2)c(C)c1 [UCB9608]
cell viability (ATP analysis and histology): remained until the end of perfusion
time liver function was well preserved: at least 6 days
liver weight after perfusion (after 8 days, without gallbladder, initial weight 2740g with gall bladder): 1507 g
macrovesicular steatosis after perfusion (after 8 days, 15% before perfusion, pathological examination): less than 5%
ATGL levels in liver biopsies [1]: substantially elevated
TG deposition in liver biopsies [1]: reduced
non-esterified fatty acids (NEFAs) from dialysate (during perfusion, UCB9608 daily, target 10 µM): detected
